Data: patent EP4417607A1, “HETEROCYCLIC COMPOUND AS SOS1 INHIBITOR AND USES THEREOF” (Nanjing Zaiming Pharmaceutical Co., Ltd., priority 2021, dated 2023)

Key:
[1] = target: T1, CYP2C9 (Homo sapiens, UniProt P11712); experiment: CYP2C9 enzymatic activity inhibition in human liver microsomes; assay type: in vitro ADME; conditions: IC50, human liver microsome, substrate diclofenac
T1 construct: Human liver microsome (Corning 452117); tissue Corning 452117; host or cells: human liver microsomes
Procedure: (§1) The inhibition of CYP2C9, CYP2D6, and CYP3A4 enzymatic activity by the compound of the present invention was determined using the following method. • I. Experimental materials and instruments • 1. Human liver microsome (Corning 452117) • 2. Na2HPO4 (Sigma SLBZ6180) • 3. KH2PO4 (Sigma SLBT6559) • 4. NADPH (Solarbio 705Y021) • […] • 6. Positive substrates diclofenac (Sigma SLBV3438), dextromethorphan (TRC 3-EDO-175-1), and midazolam (Cerilliant FE01161704) • 7. Positive inhibitors sulfaphenazole (D. Ehrenstorfer GmbH 109012), quinidine (TCI WEODL-RE), and ketoconazole (Sigma 100M1091V) • 7. AB Sciex Triple Quad 5500 liquid chromatography-mass spectrometry system • II. Procedures • 1. Preparation of 100 mM phosphate-buffered saline (PBS): 7.098 g Na2HPO4 was weighed. 500 mL pure water was added. The mixture was dissolved by sonication to give solution A. 3.400 g KH2PO4 was weighed. 250 mL pure water was added. The mixture was dissolved by sonication to give solution B. The solution A was placed in a stirrer, and the solution B was slowly added until the pH reached 7.4 to prepare the 100 mM PBS buffer. • 2. A 10 mM NADPH solution was prepared with a 100 mM PBS buffer. A 10 mM stock solution of the compound of the present invention was diluted with DMSO to give a compound working solution at a concentration of 200× (6000, 2000, 600, 200, 60, 20, and 0 µM). The positive inhibitor stock solution was diluted with DMSO to give a positive inhibitor working solution at a concentration of 200× (sulfaphenazole, 1000, 300, 100, 30, 10, 3, and 0 µM; quinidine/ketoconazole, 100, 30, 10, 3, 1, 0.3, and 0 µM). Substrate working solutions (120 µM diclofenac, 400 µM dextromethorphan, and 200 µM midazolam) at a concentration of 200× were prepared with water, acetonitrile, or acetonitrile/methanol. • 3. […]
(§2) The values were calculated by Excel XLfit 5.3.1.3 to obtain IC50 values for the compounds of the present invention against CYP2C9, CYP2D6, and CYP3A4 as shown in Table 8. […]

[2] = target: T2, CYP3A4 (Homo sapiens, UniProt P08684); experiment: CYP3A4 enzymatic activity inhibition in human liver microsomes; assay type: in vitro ADME; conditions: IC50, human liver microsome, substrate midazolam
T2 construct: Human liver microsome (Corning 452117); tissue Corning 452117; host or cells: human liver microsomes
T2 sequence (P08684 whole entry): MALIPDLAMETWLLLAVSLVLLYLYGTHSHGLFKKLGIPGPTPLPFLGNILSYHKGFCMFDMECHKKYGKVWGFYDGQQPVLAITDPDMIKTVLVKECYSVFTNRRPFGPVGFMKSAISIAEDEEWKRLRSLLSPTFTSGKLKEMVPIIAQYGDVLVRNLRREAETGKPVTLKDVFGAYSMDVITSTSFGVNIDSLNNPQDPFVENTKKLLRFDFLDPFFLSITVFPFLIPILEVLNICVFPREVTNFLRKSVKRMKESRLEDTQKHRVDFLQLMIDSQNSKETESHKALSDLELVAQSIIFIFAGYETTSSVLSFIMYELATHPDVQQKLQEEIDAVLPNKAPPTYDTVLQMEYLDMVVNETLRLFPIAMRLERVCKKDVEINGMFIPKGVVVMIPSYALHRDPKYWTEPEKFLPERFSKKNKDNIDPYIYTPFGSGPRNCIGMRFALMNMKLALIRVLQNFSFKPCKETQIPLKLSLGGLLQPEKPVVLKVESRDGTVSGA
Procedure: as §1, §2

T1 sequence (P11712 whole entry): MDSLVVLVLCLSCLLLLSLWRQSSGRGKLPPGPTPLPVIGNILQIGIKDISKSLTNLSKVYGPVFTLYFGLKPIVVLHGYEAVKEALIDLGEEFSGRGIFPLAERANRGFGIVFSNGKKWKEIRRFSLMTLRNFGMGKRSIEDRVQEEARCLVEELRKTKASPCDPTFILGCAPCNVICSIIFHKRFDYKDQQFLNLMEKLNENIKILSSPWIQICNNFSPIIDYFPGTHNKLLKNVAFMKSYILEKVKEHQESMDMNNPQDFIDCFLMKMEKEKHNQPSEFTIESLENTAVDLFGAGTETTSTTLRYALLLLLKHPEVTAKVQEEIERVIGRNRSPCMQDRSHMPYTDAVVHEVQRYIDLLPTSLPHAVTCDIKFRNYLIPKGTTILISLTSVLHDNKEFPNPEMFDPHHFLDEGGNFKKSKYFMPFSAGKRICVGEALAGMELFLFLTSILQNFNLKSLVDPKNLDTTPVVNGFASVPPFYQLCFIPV

SMILES	IC50 [1] [µM]	IC50 [2] [µM]
[2H]C([2H])([2H])Oc1c(=O)n(C2(CF)CC2)cc2c(N[C@H](C)c3cccc(C(F)F)c3F)nc(C)nc12 [Example 23, (R)-4-((1-(3-(difluoromethyl)-2-fluorophenyl)ethyl)amino)-6-(1-(fluoromethyl)cyclopropyl)-8-(methoxy-d3)-2-methylpyrido[4,3-d]pyrimidine-7(6H)-one]	> 30	> 30
[2H][C@](C)(Nc1nc(C)nc2c(N3CCOCC3)c(=O)n(C3(CF)CC3)cc12)c1cccc(C(F)F)c1F [Example 55, (R)-4-((1-(3-(difluoromethyl)-2-fluorophenyl)ethyl-1-d)amino)-6-(1-(fluoromethyl)cyclopropyl)-2-methyl-8-morpholinylpyrido[4,3-d]pyrimidine-7(6H)-one]	> 30	> 30
Cc1nc(N[C@H](C)c2cccc(C(F)F)c2F)c2cn(C3(CF)CC3)c(=O)c(N3CCOC[C@@H]3C)c2n1 [Example 40, 4-(((R)-1-(3-(difluoromethyl)-2-fluorophenyl)ethyl)amino)-6-(1-(fluoromethyl)cyclopropyl)-2-methyl-8-((S)-3-methylmorpholine)pyrido[4,3-d]pyrimidine-7(6H)-one]	> 30	> 30
